In patent publication US20060217305A1, “Induction of tumor cell senescence by retinoid receptor agonists and antagonists” (Ordway Research Institute, Inc., priority 2005, published 2006):
Where “and” joins values, the source holds several entries; their conditions need not be identical. Equal entries are not always repeated.

System: MCF-7 cells, human transcripts
Assay: Affymetrix U133 2.0 Plus microarray analysis of gene expression
Format: cell-based
Protocol: FIG. 4 depicts microarray analysis of changes in gene expression in MCF-7 cells treated with RAR agonist LGD1550 or RAR antagonist LG100815, plotted using GeneSpring software. The X axis represents different time points of treatment with RAR ligands (0 point correspond to cells cultured for 3 days with DMSO carrier).
To determine the effects of the RAR agonist and antagonist on the expression of essentially all the human genes, MCF-7 cells were treated with 100 nM of RAR agonist LGD1550 or 10 μM of RAR antagonist LG100815, concentrations that provide maximal induction of gene expression according to Q-PCR assays (as discussed above). Cells were treated for 24, 48 or 72 hrs, and total RNA from the untreated or treated cells was isolated using Qiagen's RNeasy Total RNA Isolation Kit. For gene expression profiling, RNA samples were provided to the microarray service facility of the Wadsworth Center Genomics Institute, which carried out biotinylated target preparation and hybridization with Affymetrix U 133 2.0 Plus oligonucleotide microarrays containing 56,000 probe sets representing 48,500 human transcripts. The hybridization signals were normalized using GCRMA procedure and analyzed using GeneSpring software (Silicone Genetics). […] The effects of the agonist and the antagonist also agreed with the results of the earlier analysis of the effects of RA on MCF-7 cells, with all 13 genes previously shown by RT-PCR to be induced in that system (Dokmanovic et al., 2002) also showing induction in the present microarray analysis (FIG. 4b).
RNA or protein products of genes that are induced to a similar level by both the RAR agonist and the RAR antagonist can be used as reporters in screening for compounds with properties similar to LG0100815. RNA or protein products of genes from this group (or promoter constructs for such genes) can be used as reporters in screening for compounds that mimic the effect of retinoids. Table 3, as shown below, lists a set of 508 genes chosen as preferred reporters. These genes were selected by being strongly (at least 2-fold) induced by both the agonist and the antagonist relative to untreated cells and showing no more than two-fold difference between their induction by the agonist and the antagonist. 62 genes listed at the top of Table 3 are particularly preferred reporters, as they are most strongly (at least 4-fold) induced by both the agonist and the antagonist. Table 4, as shown below, lists a set of 53 genes that can be used as preferred markers to discriminate between RARE-dependent and RARE-independent induction of transcription. These genes were chosen by being induced at least 3-fold by the agonist relative to untreated cells and also showing at least 4 times stronger induction by the agonist than by the antagonist. FIG. 6 plots the maximal fold induction of gene expression produced by the agonist versus that produced by the antagonist for the genes listed in Table 3 (particularly preferred reporters only) and in Table 4, with the corresponding trend lines. The relative effects of a tested compound on the genes in Table 3 and Table 4 should indicate whether the compound behaves as a RAR agonist or RAR antagonist. For example, one can select matching pairs of genes from Table 3 and Table 4 that are induced by the agonist to approximately the same degree. A compound that mimics the effects of the agonist should induce such genes to a similar level, whereas a compound that behaves like an antagonist should induce the gene from Table 3 to a much greater degree than the gene from Table 4.

[1] = MCF-7, LGD1550 100 nM, 24, 48 or 72 hrs
[2] = MCF-7, LGD1550 100 nM, 24, 48 or 72 hrs, listed as agonist

CC(/C=C/C=C(\C)c1cc(C(C)(C)C)cc(C(C)(C)C)c1)=C\C(=O)O [LGD1550]
Maximal effect, Fold induction (Genbank AI911972, probe 230780_at): 3.89 fold | Maximal effect, Fold induction (Genbank AW268719, probe 236798_at): 2.03 fold | Maximal effect, Fold induction (Genbank AW612407, probe 230098_at): 2.32 fold | Maximal effect, Fold induction (Genbank BF038869, probe 235322_at): 2.13 fold | Maximal effect, Fold induction (Genbank CA442342, probe 1556097_at): 3.11 fold | HOXA4 fold induction by the agonist (MCF-7, LGD1550 100 nM): 7.8 fold | RBP1 fold induction by the agonist (MCF-7, LGD1550 100 nM): 4.4 fold | number of 40 RARE-containing human genes induced ≧1.5-fold (MCF-7, LGD1550 100 nM): seven | response of RARE-containing genes induced by both ligands, agonist relative to antagonist (MCF-7, LGD1550 100 nM vs LG100815 10 μM): 3-5 fold stronger | APXL2 239435_x_at fold induction, maximal effect of agonist [1]: 63.13 fold | APXL2 241935_at fold induction, maximal effect of agonist [1]: 5.82 fold | BF593636 228642_at fold induction, maximal effect of agonist [1]: 130.43 fold | CA448125 1557050_at fold induction, maximal effect of agonist [1]: 8.90 fold | CA448125 1557051_s_at fold induction, maximal effect of agonist [1]: 23.74 fold | CEACAM1 206576_s_at fold induction, maximal effect of agonist [1]: 16.23 fold | CP 228143_at fold induction, maximal effect of agonist [1]: 10.88 fold | CP 1558034_s_at fold induction, maximal effect of agonist [1]: 44.25 fold | CYP1A1 205749_at raw signal, maximal effect of agonist [1]: 35.09 | GBP3 223434_at fold induction, maximal effect of agonist [1]: 7.32 fold | HOXA3 230080_at fold induction, maximal effect of agonist [1]: 10.38 fold | HPS3 227253_at fold induction, maximal effect of agonist [1]: 21.01 fold | HSXIAPAF1 228617_at fold induction, maximal effect of agonist [1]: 17.54 fold | IGFBP3 212143_s_at fold induction, maximal effect of agonist [1]: 16.12 fold | KRT4 213240_s_at fold induction, maximal effect of agonist [1]: 9.38 fold | OAS2 204972_at fold induction, maximal effect of agonist [1]: 15.91 fold | RNASE1 201785_at fold induction, maximal effect of agonist [1]: 49.39 fold | SLC1A1 213664_at fold induction, maximal effect of agonist [1]: 8.96 fold | TRIM31 215444_s_at fold induction, maximal effect of agonist [1]: 12.16 fold | CYP26A1 206424_at fold induction, maximal effect of agonist [2]: 220 fold and 220.23 fold | HOXA1 214639_s_at fold induction, maximal effect of agonist [2]: 95 fold | Maximal effect, Fold induction (gene ACVR1B, Genbank NM_020327, probe 208223_s_at): 2.81 fold | Maximal effect, Fold induction (gene ADFP, Genbank BC005127, probe 209122_at): 2.05 fold | Maximal effect, Fold induction (gene AKAP13, Genbank AK022014, probe 222024_s_at): 2.03 fold | Maximal effect, Fold induction (gene AMIGO, Genbank AA001423, probe 226718_at): 2.40 fold | Maximal effect, Fold induction (gene ARHGAP5, Genbank AK023014, probe 233849_s_at): 2.03 fold | Maximal effect, Fold induction (gene ARMCX3, Genbank AL121883, probe 222444_at): 2.01 fold | Maximal effect, Fold induction (gene BHLHB2, Genbank NM_003670, probe 201170_s_at): 3.46 fold | Maximal effect, Fold induction (gene CASP2, Genbank BC002427, probe 209811_at): 3.72 fold | Maximal effect, Fold induction (gene CDKL5, Genbank AI611074, probe 227004_at): 3.20 fold | Maximal effect, Fold induction (gene CHP, Genbank NM_007236, probe 207993_s_at): 2.32 fold | Maximal effect, Fold induction (gene CRTAP, Genbank AA025858, probe 227138_at): 2.07 fold | Maximal effect, Fold induction (gene CTMP, Genbank AI184512, probe 229253_at): 2.03 fold | Maximal effect, Fold induction (gene DKFZp434H2226, Genbank AL137370, probe 232893_at): 2.04 fold | Maximal effect, Fold induction (gene DKFZp434K2435, Genbank AL136855, probe 223594_at): 2.08 fold | Maximal effect, Fold induction (gene DNCL2B, Genbank AW959427, probe 238116_at): 2.02 fold | Maximal effect, Fold induction (gene DSCR1, Genbank NM_004414, probe 208370_s_at): 3.64 fold | Maximal effect, Fold induction (gene DUSP3, Genbank NM_004090, probe 201538_s_at): 2.94 fold | Maximal effect, Fold induction (gene DUSP16, Genbank AY038927, probe 1555399_a_at): 2.30 fold | Maximal effect, Fold induction (gene FLJ10996, Genbank NM_019044, probe 219774_at): 2.02 fold | Maximal effect, Fold induction (gene FLJ11196, Genbank NM_018357, probe 218651_s_at): 2.24 fold | Maximal effect, Fold induction (gene FLJ30656, Genbank BF197707, probe 212529_at): 2.09 fold | Maximal effect, Fold induction (gene FLJ32096, Genbank AK056658, probe 1555870_at): 2.98 fold | Maximal effect, Fold induction (gene FOXO3A, Genbank N25732, probe 204131_s_at): 2.53 fold | Maximal effect, Fold induction (gene GALNT7, Genbank BF699855, probe 222587_s_at): 2.51 fold | Maximal effect, Fold induction (gene GUCY1B2, Genbank NM_004129, probe 220506_at): 2.63 fold | Maximal effect, Fold induction (gene HIG2, Genbank NM_013332, probe 218507_at): 2.19 fold | Maximal effect, Fold induction (gene HNRPL, Genbank X16135, probe 35201_at): 2.16 fold | Maximal effect, Fold induction (gene INPP1, Genbank NM_002194, probe 202794_at): 2.01 fold | Maximal effect, Fold induction (gene INSIG1, Genbank BG292233, probe 201626_at): 2.04 fold | Maximal effect, Fold induction (gene JMJD3, Genbank AB002344, probe 41386_i_at): 2.48 fold | Maximal effect, Fold induction (gene KIAA1219, Genbank BG236163, probe 221738_at): 2.03 fold | Maximal effect, Fold induction (gene LCP1, Genbank J02923, probe 208885_at): 2.25 fold | Maximal effect, Fold induction (gene LGALS8, Genbank L78132, probe 208935_s_at): 2.79 fold | Maximal effect, Fold induction (gene LOC23117, Genbank AL047052, probe 235060_at): 2.00 fold | Maximal effect, Fold induction (gene LOC55971, Genbank AA496034, probe 227372_s_at): 2.09 fold | Maximal effect, Fold induction (gene LOC158402, Genbank BE504242, probe 236769_at): 2.00 fold | Maximal effect, Fold induction (gene LOC284408, Genbank AW467077, probe 235779_at): 2.03 fold | Maximal effect, Fold induction (gene MAML2, Genbank AI769569, probe 235457_at): 3.92 fold | Maximal effect, Fold induction (gene MAP3K1, Genbank AA541479, probe 225927_at): 2.05 fold | Maximal effect, Fold induction (gene MDM4, Genbank NM_002393, probe 205655_at): 2.06 fold | Maximal effect, Fold induction (gene MGC9850, Genbank BE378670, probe 224857_s_at): 2.58 fold | Maximal effect, Fold induction (gene MICAL2, Genbank BE965029, probe 212473_s_at): 2.01 fold | Maximal effect, Fold induction (gene MT1X, Genbank NM_005952, probe 208581_x_at): 3.10 fold | Maximal effect, Fold induction (gene NEDD9, Genbank AL136139, probe 202149_at): 2.24 fold | Maximal effect, Fold induction (gene NQO1, Genbank AI039874, probe 201467_s_at): 2.56 fold | Maximal effect, Fold induction (gene NR3C1, Genbank AI432196, probe 201865_x_at): 2.08 fold | Maximal effect, Fold induction (gene PARVA, Genbank NM_018222, probe 217890_s_at): 2.17 fold | Maximal effect, Fold induction (gene PRDM15, Genbank AP001745, probe 225539_at): 2.04 fold | Maximal effect, Fold induction (gene PRSS23, Genbank NM_007173, probe 202458_at): 2.05 fold | Maximal effect, Fold induction (gene PSMD7, Genbank AW361702, probe 238738_at): 2.04 fold | Maximal effect, Fold induction (gene PTK9, Genbank N25562, probe 214008_at): 2.05 fold | Maximal effect, Fold induction (gene QDPR, Genbank BC000576, probe 209123_at): 2.02 fold | Maximal effect, Fold induction (gene S100P, Genbank NM_005980, probe 204351_at): 2.33 fold | Maximal effect, Fold induction (gene SGPL1, Genbank NM_003901, probe 208381_s_at): 2.14 fold | Maximal effect, Fold induction (gene SLC35D2, Genbank AJ005866, probe 213083_at): 2.73 fold | Maximal effect, Fold induction (gene SMAD5, Genbank AI439752, probe 235451_at): 2.30 fold | Maximal effect, Fold induction (gene STYX, Genbank BG390493, probe 244030_at): 2.01 fold | Maximal effect, Fold induction (gene SUOX, Genbank NM_000456, probe 1553030_a_at): 2.05 fold | Maximal effect, Fold induction (gene TACSTD2, Genbank J04152, probe 202286_s_at): 2.17 fold | Maximal effect, Fold induction (gene TEAD2, Genbank AA337048, probe 238323_at): 2.81 fold | Maximal effect, Fold induction (gene TGFB2, Genbank AU145950, probe 228121_at): 2.04 fold | Maximal effect, Fold induction (gene TLE3, Genbank AI567426, probe 212769_at): 2.72 fold | Maximal effect, Fold induction (gene TMEM42, Genbank BF056095, probe 226361_at): 2.47 fold | Maximal effect, Fold induction (gene TNFAIP2, Genbank NM_006291, probe 202510_s_at): 2.41 fold | Maximal effect, Fold induction (gene TRIO, Genbank AV718192, probe 209012_at): 2.07 fold | Maximal effect, Fold induction (gene UROS, Genbank NM_000375, probe 203031_s_at): 2.13 fold | Maximal effect, Fold induction (gene USP24, Genbank BF444943, probe 212381_at): 2.01 fold | Maximal effect, Fold induction (gene VHL, Genbank BF972755, probe 1559227_s_at): 2.05 fold | Maximal effect, Fold induction (gene WIG1, Genbank NM_022470, probe 219628_at): 2.30 fold | Maximal effect, Fold induction (gene ZNF26, Genbank BC046206, probe 1555325_s_at): 2.03 fold | Maximal effect, Fold induction (gene ZNF281, Genbank AA121673, probe 228785_at): 2.28 fold | Maximal effect, Fold induction (gene ZNF286, Genbank BM968434, probe 1557684_at): 2.29 fold
